SMILES strings stand for the structures. “And” between values parts separate entries of the source, which are not always exact repeats. Identical values can stand only once. Toxic doses and inconclusive results are not listed.

This assay relates to CD2F1 mice, L1210 leukemia ip, survival T/C. The assay is described as follows: NCI In Vivo Anticancer Drug Screen. Data for tumor model L1210 Leukemia (intraperitoneal) in CD2F1 (CDF1) mice. The following applies: endpoint: mean survival time, higher = longer survival. In a few lines:
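In this screen, transplantable tumors were grown in mice given either the compound or its vehicle. Results were expressed as the treated measurement relative to the control measurement.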

The mark [1] stands for this setting: dose: 100.0 mg/kg/injection, schedule: Q01DX001 (ip), vehicle: Klucel (hydroxypropylcellulose) (HPC).
The mark [2] stands for this setting: dose: 200.0 mg/kg/injection, schedule: Q01DX001 (ip), vehicle: Klucel (hydroxypropylcellulose) (HPC).
The mark [3] stands for this setting: dose: 400.0 mg/kg/injection, schedule: Q01DX001 (ip), vehicle: Klucel (hydroxypropylcellulose) (HPC).
Setting [4] is: dose: 50.0 mg/kg/injection, schedule: Q01DX009 (ip), vehicle: saline.
[5] abbreviates: dose: 100.0 mg/kg/injection, schedule: Q01DX009 (ip), vehicle: saline.
Where [6] appears, read: dose: 200.0 mg/kg/injection, schedule: Q01DX009 (ip), vehicle: saline.
[7] abbreviates: dose: 100.0 mg/kg/injection, schedule: Q04DX003 (ip), vehicle: saline.
The mark [8] stands for this setting: dose: 200.0 mg/kg/injection, schedule: Q04DX003 (ip), vehicle: saline.
The mark [9] stands for this setting: dose: 400.0 mg/kg/injection, schedule: Q04DX003 (ip), vehicle: saline.
Setting [10] is: dose: 25.0 mg/kg/injection, schedule: Q01DX009 (ip), vehicle: saline with Tween-80.
Where [11] appears, read: dose: 50.0 mg/kg/injection, schedule: Q01DX009 (ip), vehicle: saline with Tween-80.
The mark [12] stands for this setting: dose: 100.0 mg/kg/injection, schedule: Q01DX009 (ip), vehicle: saline with Tween-80.
[13] abbreviates: dose: 100.0 mg/kg/injection, schedule: Q04DX003 (ip), vehicle: saline with Tween-80.
Setting [14] is: dose: 200.0 mg/kg/injection, schedule: Q04DX003 (ip), vehicle: saline with Tween-80.
[15] abbreviates: dose: 200.0 mg/kg/injection, schedule: Q01DX009 (ip), vehicle: saline with Tween-80.
Setting [16] is: dose: 400.0 mg/kg/injection, schedule: Q01DX009 (ip), vehicle: saline with Tween-80.
[17] abbreviates: dose: 100.0 mg/kg/injection, schedule: Q04DX003 (ip), vehicle: Klucel (hydroxypropylcellulose) (HPC).
The mark [18] stands for this setting: dose: 200.0 mg/kg/injection, schedule: Q04DX003 (ip), vehicle: Klucel (hydroxypropylcellulose) (HPC).
Setting [19] is: dose: 400.0 mg/kg/injection, schedule: Q04DX003 (ip), vehicle: saline with Tween-80.

With `O=C(O)CCC(NC(=O)c1ccccc1)C(=O)O` (configuration not stated), the T/C by setting is: under setting [1], 96 % of control; under setting [2], 96 % of control; under setting [3], 100 % of control.
As for `NC(CSC1(c2cccc3ccccc23)c2ccccc2-c2ccccc21)C(=O)O` (configuration not stated), the T/C (dose: 25.0 mg/kg/injection, schedule: Q01DX009 (ip), vehicle: saline) was 94 % of control; the T/C under setting [4] was 96 % of control; the T/C under setting [5] is 96 % of control; the T/C under setting [6] is 94 % of control; the T/C (dose: 400.0 mg/kg/injection, schedule: Q01DX009 (ip), vehicle: saline) is 94 % of control.
As to `CCCN(CCC)CC(=O)c1ccc2cc(Br)c3ccccc3c2c1`, the T/C runs as follows: under setting [7], 92 % of control; under setting [8], 91 % of control; under setting [9], 89 % of control.
For `Cc1ccc2c([N+](=O)[O-])cccc2n1`, the T/C reads like this: under setting [10], 93 % of control; under setting [11], 96 % of control; under setting [12], 104 % of control.
The like results for `Br/C=C(\Br)C[N+]12CN3CN(CN(C3)C1)C2` were, in that order, 107 % of control, 105 % of control and 104 % of control.
With `O=c1oc(-c2ccc(Cl)cc2)nc2cc(Cl)ccc12`, the T/C by setting is: (dose: 25.0 mg/kg/injection, schedule: Q04DX003 (ip), vehicle: saline with Tween-80) 93 % of control; (dose: 50.0 mg/kg/injection, schedule: Q04DX003 (ip), vehicle: saline with Tween-80) 93 % of control; under setting [13], 86 % of control and 89 % of control.
For `COc1cc(OC)c(NC(=O)Oc2c(Cl)cccc2Cl)cc1Cl`, the T/C is, setting by setting: under setting [11], 94 % of control; under setting [12], 97 % of control.
For the molecule `COc1ccc(C(=O)C/C(=N\N(C(=O)c2ccc(OC)cc2)c2ccccc2)c2ccc(OC)cc2)cc1`, the T/C is, setting by setting: under setting [13], 95 % of control; under setting [14], 97 % of control.
For `C/C(=N\NC(N)=O)C(F)(F)F`, the T/C was 101 % of control under setting [11]; 102 % of control under setting [12]; 97 % of control under setting [13]; 102 % of control under setting [15]; 108 % of control under setting [14].
Take `CS(=O)(=O)c1nnc(S(C)(=O)=O)s1`: the T/C (dose: 3.0 mg/kg/injection, schedule: Q01DX009 (ip), vehicle: saline sonified) was 104 % of control; the T/C (dose: 6.0 mg/kg/injection, schedule: Q01DX009 (ip), vehicle: saline sonified) is 102 % of control; the T/C (dose: 12.0 mg/kg/injection, schedule: Q01DX009 (ip), vehicle: saline sonified) was 113 % of control; the T/C (dose: 12.5 mg/kg/injection, schedule: Q04DX003 (ip), vehicle: saline sonified) is 104 % of control.
As to `O=NN(CCOS(=O)(=O)c1ccc([N+](=O)[O-])cc1)C(=O)NC1CCCCC1`, the T/C is 106 % of control (dose: 100.0 mg/kg/injection, schedule: Q01DX001 (ip), vehicle: other); 153 % of control (dose: 200.0 mg/kg/injection, schedule: Q01DX001 (ip), vehicle: other); 472 % of control (dose: 400.0 mg/kg/injection, schedule: Q01DX001 (ip), vehicle: other).
On to `Cc1ccc(S(=O)(=O)/C=C(/SC#N)C2CCCCC2)cc1`, for which the T/C was 96 % of control under setting [12], 100 % of control under setting [15] and 102 % of control under setting [16].
Consider `O=c1c2ccsc2ncn1C1OC(CO)C(O)C1O` (configuration not stated), for which the T/C runs as follows: (dose: 12.5 mg/kg/injection, schedule: Q01DX009 (ip), vehicle: saline with Tween-80) 111 % of control; under setting [10], 111 % of control; under setting [11], 91 % of control.
In the case of `COc1cccc(/C=N/NC(=O)CNC(=O)Nc2cccc(Cl)c2)c1OC`, the T/C by setting is: under setting [12], 101 % of control; under setting [15], 109 % of control; under setting [16], 103 % of control.
Turning to `N=c1ccccn1CCO`, the T/C runs as follows: (dose: 75.0 mg/kg/injection, schedule: Q01DX001 (ip), vehicle: saline) 100 % of control; (dose: 150.0 mg/kg/injection, schedule: Q01DX001 (ip), vehicle: saline) 108 % of control.
For `CC(=O)C1=CCC2[C@H]3CC=C4C[C@H](O)CC[C@@]4(C)C3CC[C@@]12C` (some centres not stated), the T/C is, setting by setting: under setting [17], 103 % of control; under setting [18], 103 % of control; (dose: 400.0 mg/kg/injection, schedule: Q04DX003 (ip), vehicle: Klucel (hydroxypropylcellulose) (HPC)) 103 % of control.
In the case of `O=C(Nc1ccc(Cl)cc1[N+](=O)[O-])c1ccc2ccccc2c1O`, the T/C is, setting by setting: under setting [1], 100 % of control; under setting [2], 105 % of control; under setting [3], 100 % of control.
On to `O=S1(=O)C2CCC(C2)C1Cl` (configuration not stated), for which the T/C under setting [13] is 88 % of control.
With `N#C[SH2+].N#C[SH2+].N#C[SH2+].N#C[SH2+].[Cu+2].c1ccc(C[P+](c2ccccc2)(c2ccccc2)c2ccccc2)cc1`, the T/C is 91 % of control (dose: 6.0 mg/kg/injection, schedule: Q04DX003 (ip), vehicle: saline); 89 % of control (dose: 12.0 mg/kg/injection, schedule: Q04DX003 (ip), vehicle: saline); 96 % of control (dose: 25.0 mg/kg/injection, schedule: Q04DX003 (ip), vehicle: saline).
Consider `C/C(=C\C(=O)C(C)(C)C)C(C)(C)C`, for which the T/C is, setting by setting: (dose: 100.0 mg/kg/injection, schedule: Q01DX001 (ip), vehicle: saline with Tween-80) 93 % of control; (dose: 200.0 mg/kg/injection, schedule: Q01DX001 (ip), vehicle: saline with Tween-80) 96 % of control; (dose: 400.0 mg/kg/injection, schedule: Q01DX001 (ip), vehicle: saline with Tween-80) 96 % of control.
For `O=CC1C(=O)N(c2ccccc2)c2ccccc21` (configuration not stated), the T/C (dose: 50.0 mg/kg/injection, schedule: Q04DX003 (ip), vehicle: Klucel (hydroxypropylcellulose) (HPC)) is 98 % of control; the T/C under setting [17] was 106 % of control; the T/C under setting [18] is 96 % of control.
As to `CCN(CC)CCNCc1c[nH]c(=S)[nH]c1=O`, the T/C under setting [7] is 103 % of control, the T/C under setting [8] is 97 % of control and the T/C under setting [9] is 101 % of control.
Consider `CC(=O)Oc1cccc(/C=C/[N+](=O)[O-])c1`, for which the T/C was 97 % of control (dose: 75.0 mg/kg/injection, schedule: Q01DX001 (ip), vehicle: steriod suspending solution); 97 % of control (dose: 150.0 mg/kg/injection, schedule: Q01DX001 (ip), vehicle: steriod suspending solution); 110 % of control (dose: 300.0 mg/kg/injection, schedule: Q01DX001 (ip), vehicle: steriod suspending solution).
Take `CC1C2CCC(C2)C1N` (configuration not stated): the T/C is, setting by setting: under setting [4], 99 % of control; under setting [5], 99 % of control; under setting [6], 99 % of control.
In the case of `CCOc1ccc(/C=C/c2cc[n+](C)cc2)cc1OC`, the T/C (dose: 100.0 mg/kg/injection, schedule: Q01DX001 (ip), vehicle: saline) was 103 % of control.
As for `N#CC(c1cccc([N+](=O)[O-])c1)C(CC(=O)c1ccccc1)c1ccccc1` (configuration not stated), the T/C by setting is: (dose: 100.0 mg/kg/injection, schedule: Q04DX002 (ip), vehicle: saline with Tween-80) 95 % of control; (dose: 200.0 mg/kg/injection, schedule: Q04DX002 (ip), vehicle: saline with Tween-80) 95 % of control; (dose: 400.0 mg/kg/injection, schedule: Q04DX002 (ip), vehicle: saline with Tween-80) 102 % of control.
For `COC(=O)c1nc2ccccc2nc1C(=O)OC`, the T/C by setting is: under setting [12], 103 % of control; under setting [13], 100 % of control; under setting [15], 103 % of control; under setting [14], 94 % of control; under setting [16], 102 % of control; under setting [19], 96 % of control.
Turning to `CCOC(=O)/C(C#N)=C(\C)c1ccccc1`, the T/C was 95 % of control (dose: 37.5 mg/kg/injection, schedule: Q01DX009 (ip), vehicle: saline with Tween-80) and 97 % of control (dose: 75.0 mg/kg/injection, schedule: Q01DX009 (ip), vehicle: saline with Tween-80).
For the molecule `CN(C)c1nnc(N(C)C)s1`, the T/C under setting [13] is 100 % of control, the T/C under setting [14] was 98 % of control and the T/C under setting [19] is 98 % of control.
